Measurements from ChEMBL document CHEMBL5370540, “Discovery of pyrimidine-5-carboxamide derivatives as novel salt-inducible kinases (SIKs) inhibitors for inflammatory bowel disease (IBD) treatment” (Eur J Med Chem, 2023).
Blank lines part the entries; values can stand above or below the compound they belong to. Calls of active or inactive are those of the source. The rule behind the calls is not given here.

Key:
[1] = Metabolic stability in human liver microsomes assessed as half life; type: ADME, Microsome
[2] = biological target: T1, Serine/threonine-protein kinase SIK2 (Homo sapiens, UniProt Q9H0K1); experiment: Inhibition of SIK2 (unknown origin) assessed as residual activity at 0.1 uM relative to control
Target sequence in this assay (Q9H0K1 whole entry, looked up): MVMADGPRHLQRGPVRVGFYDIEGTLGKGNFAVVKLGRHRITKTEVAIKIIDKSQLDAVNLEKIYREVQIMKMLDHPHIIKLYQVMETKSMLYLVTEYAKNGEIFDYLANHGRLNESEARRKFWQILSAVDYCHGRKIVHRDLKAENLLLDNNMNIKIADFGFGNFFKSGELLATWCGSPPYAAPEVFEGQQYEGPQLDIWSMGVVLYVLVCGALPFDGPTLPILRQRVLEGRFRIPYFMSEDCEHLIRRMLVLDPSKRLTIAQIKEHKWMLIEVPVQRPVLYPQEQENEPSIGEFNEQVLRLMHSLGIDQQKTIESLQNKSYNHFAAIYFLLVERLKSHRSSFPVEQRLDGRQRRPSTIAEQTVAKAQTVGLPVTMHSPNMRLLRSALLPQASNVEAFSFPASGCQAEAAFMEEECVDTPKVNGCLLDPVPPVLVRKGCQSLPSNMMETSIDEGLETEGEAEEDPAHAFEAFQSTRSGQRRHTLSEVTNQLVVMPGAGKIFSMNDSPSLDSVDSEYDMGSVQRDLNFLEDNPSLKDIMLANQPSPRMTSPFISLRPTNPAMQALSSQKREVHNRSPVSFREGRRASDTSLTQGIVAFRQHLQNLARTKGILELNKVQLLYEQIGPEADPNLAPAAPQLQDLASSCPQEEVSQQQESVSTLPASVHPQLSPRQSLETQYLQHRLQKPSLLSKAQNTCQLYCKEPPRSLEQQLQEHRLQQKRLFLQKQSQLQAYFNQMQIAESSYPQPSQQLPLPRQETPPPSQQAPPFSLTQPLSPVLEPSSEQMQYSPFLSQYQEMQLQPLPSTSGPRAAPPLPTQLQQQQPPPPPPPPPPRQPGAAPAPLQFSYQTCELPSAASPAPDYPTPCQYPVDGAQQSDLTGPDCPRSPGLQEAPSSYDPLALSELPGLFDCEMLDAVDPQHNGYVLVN

[3] = biological target: T2, Serine/threonine-protein kinase SIK3 (Homo sapiens, UniProt Q9Y2K2); experiment: Inhibition of SIK3 (unknown origin) assessed as residual activity at 0.1 uM relative to control
Target sequence in this assay (Q9Y2K2 whole entry, looked up): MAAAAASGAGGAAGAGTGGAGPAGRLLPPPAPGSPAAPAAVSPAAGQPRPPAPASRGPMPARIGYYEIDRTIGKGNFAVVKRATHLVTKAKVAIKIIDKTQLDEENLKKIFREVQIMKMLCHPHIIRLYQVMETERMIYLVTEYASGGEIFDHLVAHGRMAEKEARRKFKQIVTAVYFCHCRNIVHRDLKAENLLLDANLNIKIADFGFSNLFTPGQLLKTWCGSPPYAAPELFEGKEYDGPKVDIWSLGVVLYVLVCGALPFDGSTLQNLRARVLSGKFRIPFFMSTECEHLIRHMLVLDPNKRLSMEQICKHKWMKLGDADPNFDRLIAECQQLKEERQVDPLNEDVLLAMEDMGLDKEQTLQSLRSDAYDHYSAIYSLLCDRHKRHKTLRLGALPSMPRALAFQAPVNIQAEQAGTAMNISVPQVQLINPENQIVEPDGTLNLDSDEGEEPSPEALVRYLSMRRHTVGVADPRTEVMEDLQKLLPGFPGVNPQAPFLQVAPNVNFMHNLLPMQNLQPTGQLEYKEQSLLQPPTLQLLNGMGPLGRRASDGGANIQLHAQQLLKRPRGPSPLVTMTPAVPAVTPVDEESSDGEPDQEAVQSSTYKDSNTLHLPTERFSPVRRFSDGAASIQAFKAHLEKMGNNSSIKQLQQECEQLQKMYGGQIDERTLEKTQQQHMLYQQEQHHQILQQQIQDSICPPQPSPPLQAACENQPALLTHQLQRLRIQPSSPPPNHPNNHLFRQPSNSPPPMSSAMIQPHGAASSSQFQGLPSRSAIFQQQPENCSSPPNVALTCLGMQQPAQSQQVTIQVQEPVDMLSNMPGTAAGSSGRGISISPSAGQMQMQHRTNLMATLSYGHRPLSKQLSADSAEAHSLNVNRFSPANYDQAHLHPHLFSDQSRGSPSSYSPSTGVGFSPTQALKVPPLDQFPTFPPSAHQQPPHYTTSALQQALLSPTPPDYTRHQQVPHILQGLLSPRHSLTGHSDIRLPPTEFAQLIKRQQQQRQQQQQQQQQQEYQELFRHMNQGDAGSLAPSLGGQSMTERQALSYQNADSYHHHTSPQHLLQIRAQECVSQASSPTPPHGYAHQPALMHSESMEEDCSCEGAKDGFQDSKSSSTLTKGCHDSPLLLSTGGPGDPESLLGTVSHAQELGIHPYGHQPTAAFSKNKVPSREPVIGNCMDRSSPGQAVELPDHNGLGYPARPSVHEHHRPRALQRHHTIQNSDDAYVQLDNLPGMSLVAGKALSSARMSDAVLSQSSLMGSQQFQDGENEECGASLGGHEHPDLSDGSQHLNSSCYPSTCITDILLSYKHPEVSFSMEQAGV

[4] = biological target: T3, Serine/threonine-protein kinase SIK1 (Homo sapiens, UniProt P57059); experiment: Inhibition of SIK1 (unknown origin) assessed as residual activity at 0.1 uM relative to control
T3 sequence (P57059 whole entry): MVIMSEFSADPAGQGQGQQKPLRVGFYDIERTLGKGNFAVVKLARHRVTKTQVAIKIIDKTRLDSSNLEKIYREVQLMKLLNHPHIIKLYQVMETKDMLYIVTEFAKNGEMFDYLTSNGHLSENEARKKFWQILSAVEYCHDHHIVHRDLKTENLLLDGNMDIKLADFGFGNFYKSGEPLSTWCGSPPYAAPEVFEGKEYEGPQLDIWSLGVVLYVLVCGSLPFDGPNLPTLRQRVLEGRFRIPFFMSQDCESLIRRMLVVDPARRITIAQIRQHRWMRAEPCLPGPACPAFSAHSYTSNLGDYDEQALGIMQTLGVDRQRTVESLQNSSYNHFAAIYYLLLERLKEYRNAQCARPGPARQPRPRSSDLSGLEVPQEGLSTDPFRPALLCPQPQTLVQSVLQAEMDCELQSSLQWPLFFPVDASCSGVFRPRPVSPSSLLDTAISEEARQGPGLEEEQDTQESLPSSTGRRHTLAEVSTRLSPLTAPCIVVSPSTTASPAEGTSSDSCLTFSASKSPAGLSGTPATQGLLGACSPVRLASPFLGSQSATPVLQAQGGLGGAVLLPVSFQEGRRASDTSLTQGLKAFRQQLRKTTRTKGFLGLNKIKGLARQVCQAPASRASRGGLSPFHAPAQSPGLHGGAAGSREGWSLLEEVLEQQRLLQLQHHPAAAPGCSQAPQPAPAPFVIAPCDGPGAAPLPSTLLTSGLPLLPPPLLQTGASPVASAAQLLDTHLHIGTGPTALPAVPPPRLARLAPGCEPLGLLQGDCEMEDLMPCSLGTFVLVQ

[5] = Metabolic stability in mouse liver microsomes assessed as half life; type: ADME, Microsome
[6] = Protein binding in mouse plasma; type: ADME, cell-free; settings: read-out: PPB
[7] = Tmax in Sprague-Dawley rat at 5 mg/kg, iv measured upto 24 hrs by LC/MS/MS analysis; type: ADME, organism-based; settings: in vivo
[8] = Tmax in Sprague-Dawley rat at 5 mg/kg, po measured upto 24 hrs by LC/MS/MS analysis; type: ADME, organism-based; settings: in vivo
[9] = biological target: T1, Serine/threonine-protein kinase SIK2; experiment: Inhibition of SIK2 (unknown origin)
Target sequence in this assay (Q9H0K1 whole entry): as the sequence (Q9H0K1 whole entry, looked up) above

[10] = Half life in Sprague-Dawley rat at 5 mg/kg, po measured upto 24 hrs by LC/MS/MS analysis; type: ADME, organism-based; settings: in vivo
[11] = Cmax in Sprague-Dawley rat at 5 mg/kg, po measured upto 24 hrs by LC/MS/MS analysis; type: ADME, organism-based; design: time < 24 hrs, dose 5 mg/kg, route po; settings: in vivo
[12] = Selectivity ratio of IC50 for SIK1 (unknown origin) to IC50 for SIK2 (unknown origin)
[13] = Clearance in Sprague-Dawley rat at 5 mg/kg, po measured upto 24 hrs by LC/MS/MS analysis; type: ADME, organism-based; settings: in vivo
[14] = biological target: T2, Serine/threonine-protein kinase SIK3; experiment: Inhibition of SIK3 (unknown origin)
Target sequence in this assay (Q9Y2K2 whole entry): as the sequence (Q9Y2K2 whole entry, looked up) above

[15] = Selectivity ratio of IC50 for SIK3 (unknown origin) to IC50 for SIK2 (unknown origin)
[16] = Clearance in Sprague-Dawley rat at 5 mg/kg, iv measured upto 24 hrs by LC/MS/MS analysis; type: ADME, organism-based; settings: in vivo
[17] = Oral bioavailability in Sprague-Dawley rat at 5 mg/kg measured upto 24 hrs by LC/MS/MS analysis; type: ADME, organism-based; settings: in vivo
[18] = biological target: T3, Serine/threonine-protein kinase SIK1; experiment: Inhibition of SIK1 (unknown origin)
[19] = AUC (0 to t) in Sprague-Dawley rat at 5 mg/kg, po measured upto 24 hrs by LC/MS/MS analysis; type: ADME, organism-based; design: time < 24 hrs, dose 5 mg/kg, route po; settings: in vivo
[20] = Half life in Sprague-Dawley rat at 5 mg/kg, iv measured upto 24 hrs by LC/MS/MS analysis; type: ADME, organism-based; settings: in vivo
[21] = AUC (0 to t) in Sprague-Dawley rat at 5 mg/kg, iv measured upto 24 hrs by LC/MS/MS analysis; type: ADME, organism-based; design: time < 24 hrs, dose 5 mg/kg, route iv; settings: in vivo
[22] = Cmax in Sprague-Dawley rat at 5 mg/kg, iv measured upto 24 hrs by LC/MS/MS analysis; type: ADME, organism-based; design: dose 5 mg/kg, time < 24 hrs, route iv; settings: in vivo
[23] = test system: BMDM; experiment: Anti-inflammatory activity against C57BL/6J mouse BMDM cells assessed as decrease in IL-12 level at 500 nM preincubated for 1 hr followed by LPS stimulation measured after 8 hrs by ELISA method; type: functional, cell-based; settings: time 9.0 hrs
[24] = test system: BMDM; experiment: Anti-inflammatory activity against C57BL/6J mouse BMDM cells assessed as increase in IL-10 level at 500 nM preincubated for 1 hr followed by LPS stimulation measured after 2 to 8 hrs by ELISA method; type: functional, cell-based; settings: time 3-9 hrs
[25] = test system: BMDM; experiment: Cytotoxicity against C57BL/6J mouse BMDM cells assessed as cell viability upto 500 nM preincubated for 1 hr followed by LPS stimulation measured after 2 to 4 hrs by CCK8 assay; type: toxicity, cell-based; settings: 0.5 µM, time 3-5 hrs
[26] = test system: BMDM; experiment: Anti-inflammatory activity against C57BL/6J mouse BMDM cells assessed as decrease in IL-12 level at 500 nM preincubated for 1 hr followed by LPS stimulation measured after 4 to 8 hrs by ELISA method; type: functional, cell-based; settings: time 5-9 hrs
[27] = test system: BMDM; experiment: Anti-inflammatory activity against C57BL/6J mouse BMDM cells assessed as decrease in IL-12 level upto 500 nM preincubated for 1 hr followed by LPS stimulation measured after 8 hrs by ELISA method; type: functional, cell-based; settings: time 9.0 hrs
[28] = Protein binding in human plasma at 10 uM measured for 8 hrs by dialysis method; type: ADME, cell-free; settings: read-out: PPB (converted)

SMILES: CNc1nc(Nc2ccc(N3CCN(C)CC3)cc2)ncc1C(=O)Nc1c(C)cccc1C
half-life [1]: 17.5 min

SMILES: Cc1cccc(C)c1NC(=O)c1cnc(Nc2ccc(N3CCN(C)CC3)cc2)nc1NC1CCC1
half-life [1]: 44.7 min

SMILES: Cc1cccc(C)c1NC(=O)c1cnc(Nc2ccc(N3CCN(C)CC3)cc2)nc1NC1CC1
half-life [1]: 40.8 min

SMILES: COc1ccc(N2C(=O)N(c3c(C)cccc3Cl)Cc3cnc(Nc4ccc(C5CCN(C)CC5)cc4OC)nc32)nc1
half-life [5]: > 120 min
fraction unbound [6]: > 0.06

SMILES: Cc1cccc(C)c1NC(=O)c1cnc(Nc2ccc(N3CCN(C)CC3)cc2)nc1NC1CCCCC1
half-life [1]: 37.3 min

SMILES: COc1cc(Nc2ncc(C(=O)Nc3c(C)cccc3C)c(NC3CC3)n2)ccc1N1CCN(C)CC1
half-life [1]: 52.1 min

SMILES: Cc1cccc(C)c1NC(=O)c1cnc(Nc2ccc(N3CCN(C)CC3)c(F)c2)nc1NC1CCC1
half-life [1]: 62.4 min

SMILES: CN1CCN(c2ccc(Nc3ncc(C(=O)Nc4c(F)cccc4F)c(NC4CCC4)n3)cc2)CC1
Activity [4]: 12%
Activity [2]: 10%
Activity [3]: 93%
half-life [1]: 49.5 min

SMILES: COc1cccc(C)c1NC(=O)c1cnc(Nc2ccc(N3CCN(C)CC3)cc2)nc1NC1CCC1
Activity [2]: 107%
Activity [3]: 93%
half-life [1]: 31.9 min

SMILES: COc1ccc(N2C(=O)N(c3c(C)cccc3Cl)Cc3cnc(Nc4ccc(N5CCN(C)CC5)cc4)nc32)nc1
half-life [5]: 27 min

SMILES: Cc1cccc(C)c1NC(=O)c1cnc(Nc2ccc(N3CCN(C)CC3)c(F)c2)nc1NC1CC1
half-life [1]: 60.3 min

Continued, in another order:

half-life [1]: 44.1 min
SMILES: COc1cc(N2CCN(C)CC2)ccc1Nc1ncc(C(=O)Nc2c(C)cccc2C)c(NC2CCC2)n1

Activity [2]: 52%
Activity [3]: 66%
half-life [1]: 21.5 min
SMILES: Cc1cccc(Br)c1NC(=O)c1cnc(Nc2ccc(N3CCN(C)CC3)cc2)nc1NC1CCC1

half-life [1]: > 120 min
SMILES: Cc1cccc(C)c1NC(=O)c1cnc(Nc2ccc(N3CCN(C)CC3)cc2F)nc1NC1CCC1

Activity [4]: 31%
Activity [2]: 20%
Activity [3]: 68%
half-life [1]: 43.3 min
SMILES: Cc1cccc(Cl)c1NC(=O)c1cnc(Nc2ccc(N3CCN(C)CC3)cc2)nc1NC1CCC1

half-life [1]: 24.3 min
SMILES: Cc1cccc(C)c1NC(=O)c1cnc(Nc2ccc(N3CCN(C)CC3)cc2)nc1NC(C)C

half-life [1]: 6.5 min
SMILES: Cc1cccc(C)c1NC(=O)c1cnc(Nc2ccc(CN3CCOCC3)cc2)nc1NC1CCC1

Tmax [7]: 6 min
Tmax [8]: 222 min
IC50 [9]: 0.006 µM
half-life [10]: 234 min
Cmax [11]: 52.2 ng/mL
Ratio IC50 [12]: 2.7
CL/F [13]: 315 mL/min/kg
IC50 [14]: 0.051 µM
Ratio IC50 [15]: 8.5
clearance [16]: 51.7 mL/min/kg
bioavailability [17]: 23.4%
IC50 [18]: 0.016 µM
AUC(0-t) at 24 h [19]: 432 ng·h/mL
half-life [20]: 366 min
half-life [1]: 73.7 min
AUC(0-t) at 24 h [21]: 1850 ng·h/mL
Cmax [22]: 1540 ng/mL
SMILES: Cc1cccc(F)c1NC(=O)c1cnc(Nc2ccc(N3CCN(C)CC3)c(F)c2)nc1NC1CC1

half-life [1]: 33 min
SMILES: Cc1cccc(C)c1NC(=O)c1cnc(Nc2ccc(N3CCNCC3)cc2)nc1NC1CCC1

Activity [4]: 124%
Activity [2]: 22%
Activity [3]: 100%
half-life [1]: 45.6 min
SMILES: CN1CCN(c2ccc(Nc3ncc(C(=O)Nc4ccccc4F)c(NC4CCC4)n3)cc2)CC1

half-life [1]: 56.6 min
SMILES: Cc1cccc(C)c1NC(=O)c1cnc(Nc2ccc(N3CCN(C)CC3)c(Cl)c2)nc1NC1CCC1

half-life [1]: > 120 min
SMILES: COc1ccc(Nc2nc(Nc3ccc(N4CCN(C)CC4)cc3)ncc2C(=O)Nc2c(C)cccc2C)c(OC)c1

half-life [1]: 48.6 min
SMILES: COc1cc(Nc2ncc(C(=O)Nc3c(C)cccc3C)c(NC3CCC3)n2)ccc1N1CCN(C)CC1

Tmax [7]: 6 min
Tmax [8]: 78 min
half-life [10]: 150 min
Cmax [11]: 149 ng/mL
half-life [5]: 11 min
CL/F [13]: 223 mL/min/kg
clearance [16]: 76.7 mL/min/kg
bioavailability [17]: 47.2%
AUC(0-t) at 24 h [19]: 522 ng·h/mL
half-life [20]: 210 min
half-life [1]: 14.4 min
AUC(0-t) at 24 h [21]: 1110 ng·h/mL
fraction unbound at 8 h, 10 µM [28]: < 0.01
Cmax [22]: 1290 ng/mL
SMILES: COc1ccc(N(C(=O)Nc2c(C)cccc2C)c2cc(Nc3ccc(N4CCN(C)CC4)cc3)ncn2)c(OC)c1
Activity [23]: Active
Activity [24]: Active
Activity [25]: Non-Toxic
Activity [26]: inactive
Activity [27]: Active

half-life [1]: 32.4 min
SMILES: Cc1cccc(C)c1NC(=O)c1cnc(Nc2ccc(N3CCN(C)CC3)cc2)nc1NC1CCCC1

Activity [2]: 1%
Activity [3]: 9%
half-life [1]: 69.3 min
SMILES: Cc1cccc(F)c1NC(=O)c1cnc(Nc2ccc(N3CCN(C)CC3)cc2)nc1NC1CCC1
